PubChem BioAssay (NCI)
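All cell lines were grown in 96-well plates and treated with compound for 48 hours. The concentration for 50% growth inhibition is given as GI50. Definition used: TGI = concentration required for complete inhibition of growth.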

Columns and labels:
Assay in all cases: inhibition of tumour cell growth, NCI panel, 48 h
MOLT-4 leukemia = system: MOLT-4 leukemia
NCI-H226 lung = system: NCI-H226 lung
SW-620 colon = system: SW-620 colon
TK-10 renal = system: TK-10 renal
OVCAR-4 ovarian = system: OVCAR-4 ovarian
UO-31 renal = system: UO-31 renal
HCT-116 colon = system: HCT-116 colon
IGROV1 ovarian = system: IGROV1 ovarian
OVCAR-5 ovarian = system: OVCAR-5 ovarian
SK-OV-3 ovarian = system: SK-OV-3 ovarian

| SMILES | TGI (MOLT-4 leukemia) | TGI (NCI-H226 lung) | TGI (SW-620 colon) | TGI (TK-10 renal) | TGI (OVCAR-4 ovarian) | TGI (UO-31 renal) | TGI (HCT-116 colon) | TGI (IGROV1 ovarian) | TGI (OVCAR-5 ovarian) | TGI (SK-OV-3 ovarian) | GI50 (MOLT-4 leukemia) | GI50 (NCI-H226 lung) | GI50 (SW-620 colon) | GI50 (TK-10 renal) | GI50 (OVCAR-4 ovarian) | GI50 (UO-31 renal) | GI50 (HCT-116 colon) | GI50 (IGROV1 ovarian) | GI50 (OVCAR-5 ovarian) | GI50 (SK-OV-3 ovarian) |
| --- | --- | --- | --- | --- | --- | --- | --- | --- | --- | --- | --- | --- | --- | --- | --- | --- | --- | --- | --- | --- |
| N=S(c1ccccc1)c1ccccc1[N+](=O)[O-] (stereo not given) | 64.3 µM | 25.4 µM | 31.4 µM | 34.8 µM | 28.4 µM | 29.5 µM | 31.6 µM | 32.9 µM | 34.7 µM | 84.6 µM | – | – | – | – | – | – | – | – | – | – |
| OB1OCc2cc(/C=C/c3cccc(C(F)(F)F)c3)ccc21 | 12.9 µM | 56.4 µM | > 100 µM | 34.1 µM | 17.3 µM | 20.3 µM | 11.8 µM | 60.2 µM | > 100 µM | 63.5 µM | 0.454 µM | 2.52 µM | 1.57 µM | 2.46 µM | 1.86 µM | 0.551 µM | 0.89 µM | 1.88 µM | 5.15 µM | 2.9 µM |
| CCOC(=O)/C(=C/c1cccc(OC)c1)N(CC)CC | > 100 µM | > 100 µM | > 100 µM | > 100 µM | > 100 µM | > 100 µM | > 100 µM | > 100 µM | > 100 µM | > 100 µM | – | – | – | – | – | – | – | – | – | – |
| NC(=O)c1cccc(Nc2nccc(Nc3cccc(F)c3)n2)c1 | > 25 µM | > 21.7 µM | > 24 µM | > 23.7 µM | > 25 µM | 22.3 µM | > 25 µM | > 21.1 µM | > 25 µM | 17.2 µM | 13.1 µM | 4.74 µM | 7.11 µM | 6.51 µM | 4.37 µM | 4.49 µM | 9.1 µM | 6.21 µM | 8.07 µM | 5.85 µM |
| Cc1ccc(S(=O)(=O)N/N=C(\c2nc3ccc([N+](=O)[O-])cc3[nH]c2=O)C(O)c2ccccc2Cl)cc1 (stereo not given) | > 100 µM | > 100 µM | > 100 µM | > 100 µM | > 100 µM | > 100 µM | > 100 µM | > 100 µM | > 100 µM | > 100 µM | – | – | – | – | – | – | – | – | – | – |
| CC(C)c1ccccc1NC(=O)/C(Cl)=C1/Sc2ccccc2NC1=O | 79.8 µM | > 100 µM | > 100 µM | > 100 µM | > 100 µM | > 100 µM | > 100 µM | > 100 µM | > 100 µM | 66.6 µM | – | – | – | – | – | – | – | – | – | – |
| CCCCCCCCCCN=C(c1ccc(N(C)C)cc1)c1ccc(N(C)C)cc1 | 30.8 µM | > 81.3 µM | > 100 µM | 49.7 µM | > 83.6 µM | 33 µM | 32.9 µM | > 100 µM | > 100 µM | 40.3 µM | 0.416 µM | 10.8 µM | 0.425 µM | 3.81 µM | 3.29 µM | 2.39 µM | 0.423 µM | 0.917 µM | 7.65 µM | 1.44 µM |
| Cc1c(C(=O)CSc2nc3ccccc3c(=O)n2-c2ccccc2)c(=O)n(-c2ccccc2)n1C | > 100 µM | 69.2 µM | > 100 µM | > 100 µM | > 100 µM | 79.4 µM | > 100 µM | > 100 µM | > 100 µM | 41.4 µM | – | – | – | – | – | – | – | – | – | – |
| Cc1nnc(N/N=C(/C(=O)C(C#N)c2ccccc2)C(C#N)c2ccccc2)n1N (stereo not given) | 9.28 µM | > 61.7 µM | 8.19 µM | > 100 µM | > 54.9 µM | > 56.5 µM | > 55.7 µM | > 95.9 µM | > 57 µM | > 100 µM | – | – | – | – | – | – | – | – | – | – |
